Test results from patent US20230192701A1, “BICYCLIC KINASE INHIBITORS AND USES THEREOF” (iOmx Therapeutics AG, priority 2020, published 2023).
≈ marks a conversion by molar mass, not a printed value. Entries after “also recorded” stand apart in the source; their conditions may differ. Read-outs that look alike come from different tables or passages of the source.

Tests used:
[1] = biological target: SIK2 (Homo sapiens, UniProt Q9H0K1); assay: radiometric protein kinase assay (33PanQinase Activity Assay), SIK2; assay type: biochemical; details: for IC50: ATP 1.0 μM, substrate RBER-CHKtide; for inhibiting SIK2 compared to PY1: in words
Method: (§1) The IC50s of the compounds against the SIK family of protein-serine/threonine kinases (SIK2 and SIK3) were determined as followed. Briefly, a radiometric protein kinase assay (33PanQinase® Activity Assay) was used for measuring the kinase activity of the two protein kinases. The kinase assays were performed in 96-well FlashPlates™ from PerkinElmer (Boston, Mass., USA) in a 50 uL reaction volume. The reaction cocktail was pipetted in four steps in the following order: • […] (standard buffer/[gamma-33P]-ATP) • 10 uL of ATP solution (in water) • 5 uL of test compound (in 10% DMSO) • 20 uL enzyme/substrate mix
(§2) The following amounts of enzyme and applicable substrate were used per well:
(§3) The reaction cocktails were incubated at 30 °C for 60 minutes. The reaction was stopped with 50 uL of 2% (v/v) H3PO4, plates were aspirated and washed two times with 200 μL 0.9% (w/v) NaCl. Incorporation of 33Pi was determined with a microplate scintillation counter (Microbeta, Wallac). All assays were performed with a BeckmanCoulter/SAGIAN™ Core System.

[2] = biological target: SIK3 (Homo sapiens, UniProt Q9Y2K2); assay: radiometric protein kinase assay (33PanQinase Activity Assay), SIK3; assay type: biochemical; details: for IC50: ATP 1.0 μM, substrate RBER-CHKtide; for inhibiting SIK3 compared to PY1: in words
Method: as §1, §2, §3

[3] = biological target: 335 wild-type protein kinases; assay: single-point inhibition assays, residual activity (ProQinase Kinase Profiler); assay type: biochemical; details: single-point 0.1 uM and 1 uM, 335 kinases
Method: Several compounds of Formula (I) described herein were also tested in single-point (0.1 uM and 1 uM) inhibition assays over a diverse set of 335 wild-type protein (ProQinase “Kinase Profiler”; ProQinase, Freiburg, Germany), in which the residual activity of each kinase was determined. […] Secondly, the residual activity of each kinase was compared to other compounds tested (in particular, against the prior art compounds PY1) by use of scatter plots.

[4] = system: HCT116 and PANC1; assay: toxicity against the cell lines in the absence of TNF; assay type: cell-based; details: 0 ng/mL TNF, up to concentrations of 10 uM
Method: Typically, those compounds of Formula (I) tested were less toxic against the cell lines than the prior art compound PY1 when tested (eg, in the absence of TNF), especially against the human cell lines such as HCT116 (data not shown).
(§4) Cell viability of HCT116 tumour cells was measured using the CellTiter-Glo (CTG) luminescent cell viability assay (Promega, Madison, USA) according to the manufacturer's protocol. In short, 1×10^3 HCT116 cells were seeded in a 384-well plate for 24 h and subsequently treated with different concentrations of compounds and 10 ng/ml rHuTNF for 72 h at 37° C. and 5% CO2. After incubation, CTG reagent was added to the wells and cells were lysed for 10 min. Read-out was performed using the Tecan reader with 0.1 sec counting time. TNF-induced cell killing in human PANC1 and murine MC38 tumour cells was measured analogously to the assay in human HCT116 cells, except that for the PANC1 assay 100 ng/ml rHuTNF and for the MC38 assay 100 ng/ml rMuTNF were used.

[5] = system: MC38 tumour cells; assay: TNF-sensitised cell viability assay (CellTiter-Glo), MC38; assay type: cell-based, murine; details: 100 ng/ml rMuTNF, 72 h
Method: as §4

[6] = Kinetic solubility assay; assay type: physicochemical; details: aqueous buffer, kinetic from dmso stock; PBS buffer pH 7.4, 1.0% DMSO, 24 h at RT
Method: The Kinetic solubility assay was conducted as follows. 4 uL compound of the 50 mM DMSO stock was added to deep well plate containing 396 uL PBS buffer (pH 7.4). The DMSO content in the sample was 1.0%, and the compound concentration 500 μM. The sample plate was vortexed at 800 rpm for 24 h at RT on a thermomixer. At the end of the incubation period, the sample plate was centrifuged at 4000 rpm for 10 mins. 3 uL of supernatant was transferred to well containing 297 uL of ISTD in Acetonitrile water:50:50, v/v and analysed in LC-MS/MS against a calibration curve (CC).

[7] = Human liver microsomal stability; assay type: in vitro ADME; details: pH 7.4; human liver microsomes, NADPH, 37°C
Method: (§5) Briefly, human and liver microsomal stability was determined by pre-incubation of 2.5 uL compound and 75 uL of the respective liver microsomes in potassium phosphate buffer (pH 7.4) at 37° C. After adding of NADPH as cofactor and further incubation at 37° C. for 60 min, acetonitrile containing internal standard was added, and the sample was vortexed for 5 min at 1200 rpm and then centrifuged 10 min at 4000 rpm.
(§6) LC-MS/MS was performed for all assays using a C18 column (50*4.6 mm, 5 um) for the CaCo2 assay, or a C18 column (50*4.6 mm, 4 um) for the other assays. The mobile phases used were 10 mM Ammonium Acetate with 0.1% Formic acid (aqueous) and 100% Acetonitrile (organic).

[8] = Mouse liver microsomal stability; assay type: in vitro ADME; details: pH 7.4; mouse liver microsomes, NADPH, 37°C
Method: as §5, §6

[9] = Human hepatocyte stability; assay type: in vitro ADME; details: human hepatocytes, 37°C
Method: (§7) Determination of human and mice hepatocyte stability was conducted as follows. 200 uL of the respective hepatocyte cell suspension (2×10e6/ml) was preincubated at 37° C. for 10 min. Then, 200 uL of a 2 uM working stock of the test compound was added to the hepatocyte cell suspension, and the mixture was further incubated at 37° C. and 500 rpm. The reaction was stopped at 30, 60 and 120 min by precipitating 50 uL of the incubation mixture with 200 uL of acetonitrile. Samples were vortexed for 5 min at 1200 rpm and centrifuged at 4000 rpm for 10 min. Intrinsic clearance and half-life were analysed using LC-MS/MS.
as §6

[10] = Mouse hepatocyte stability; assay type: in vitro ADME; details: mouse hepatocytes, 37°C
Method: as §7, §6

[11] = Human plasma-protein binding (RED method); assay type: in vitro ADME
Method: (§8) Human and mice protein plasma binding was determined using the Plasma Protein Binding by RED Method. Briefly, 200 uL of the respective plasma containing the test compound (10 uM) was spiked into the donor well (RED Chamber) of the insert. 350 uL of PBS was spiked into receiver well (white chamber). The plate was incubated at 37° C. in a thermomixer at 400 rpm for 5 hours. The samples were matrix equilibrated with opposite matrix (25 uL blank buffet/Plasma). Matrix matched samples were precipitated with 200 uL of Acetonitrile containing Internal standard. Samples were vortexed at 1000 rpm for 5 min and centrifuged at 4000 rpm for 10 min. The supernatant was diluted 2 folds with water and % bound and unbound protein and % recovery at 5 h was determined by LC-MS/MS.
as §6

[12] = Murine plasma protein binding (RED method); assay type: in vitro ADME; details: mouse
Method: as §8, §6

[13] = CaCo2 permeability and efflux assay; assay type: in vitro ADME; details: human, Caco-2; CaCo2, mean efflux ratio
Method: (§9) To determine apparent permeability of the compounds an assay using a Caco-2 cells monolayer (cultured for 21d) in a 24-well format (poly carbonate high pore density plate with 0.4 μm pore size and a 0.7 cm2 active membrane area; Millipore) was performed as followed. 800 uL of DMEM was added to the basal compartment of the 24 well-plate and 60000 CaCo2 cells/well were seeded in the apical wells and incubated in a CO2 incubator at 37° C. for proliferation of cells. Apical to Basal permeability was determined by adding 400 uL of test compound to the apical well and 800 uL of HBSS buffer with 2% BSA to the basal well. 25 uL of basal sample was collected after 120 min and processed as stated below. Basal to Apical permeability was determined by adding 800 uL of test compound to basal well and 400 uL of HBSS buffer with 2% BSA to apical well. 25 uL of apical sample was collected after 120 min and processed as stated below. The samples were processed by diluting the donor samples 1:1 with HBSS containing 2% BSA and the receiver samples 1:1 with HBSS buffer. Samples were then precipitated with 200 uL of acetonitrile containing internal standard, vortexed for 5 min at 1000 rpm, and centrifuged at 4000 rpm for 20 min. 150 uL of supernatant was diluted with 150 uL of water and submitted for LC-MS/MS analysis, and Bi-directional (A-B and B-A) apparent permeability (Papp) was calculated.
as §6

[14] = system: Caco-2 cells monolayer; assay: CaCo2 permeability and efflux assay; assay type: in vitro ADME; details: CaCo2, apical to basal, 120 min
Method: as §9, §6

[15] = system: HCT116 tumour cells; assay: TNF-sensitised cell viability assay (CellTiter-Glo), HCT116; assay type: cell-based, human
Method: as §4

[16] = system: PANC1 tumour cells; assay: TNF-sensitised cell viability assay (CellTiter-Glo), PANC1; assay type: cell-based, human
Method: as §4

[17] = Mus musculus, MC-38, read-out: MC38 IC50 (at 100 ng/ml rMuTNF)

Chain of SIK3 (Q9Y2K2 whole entry): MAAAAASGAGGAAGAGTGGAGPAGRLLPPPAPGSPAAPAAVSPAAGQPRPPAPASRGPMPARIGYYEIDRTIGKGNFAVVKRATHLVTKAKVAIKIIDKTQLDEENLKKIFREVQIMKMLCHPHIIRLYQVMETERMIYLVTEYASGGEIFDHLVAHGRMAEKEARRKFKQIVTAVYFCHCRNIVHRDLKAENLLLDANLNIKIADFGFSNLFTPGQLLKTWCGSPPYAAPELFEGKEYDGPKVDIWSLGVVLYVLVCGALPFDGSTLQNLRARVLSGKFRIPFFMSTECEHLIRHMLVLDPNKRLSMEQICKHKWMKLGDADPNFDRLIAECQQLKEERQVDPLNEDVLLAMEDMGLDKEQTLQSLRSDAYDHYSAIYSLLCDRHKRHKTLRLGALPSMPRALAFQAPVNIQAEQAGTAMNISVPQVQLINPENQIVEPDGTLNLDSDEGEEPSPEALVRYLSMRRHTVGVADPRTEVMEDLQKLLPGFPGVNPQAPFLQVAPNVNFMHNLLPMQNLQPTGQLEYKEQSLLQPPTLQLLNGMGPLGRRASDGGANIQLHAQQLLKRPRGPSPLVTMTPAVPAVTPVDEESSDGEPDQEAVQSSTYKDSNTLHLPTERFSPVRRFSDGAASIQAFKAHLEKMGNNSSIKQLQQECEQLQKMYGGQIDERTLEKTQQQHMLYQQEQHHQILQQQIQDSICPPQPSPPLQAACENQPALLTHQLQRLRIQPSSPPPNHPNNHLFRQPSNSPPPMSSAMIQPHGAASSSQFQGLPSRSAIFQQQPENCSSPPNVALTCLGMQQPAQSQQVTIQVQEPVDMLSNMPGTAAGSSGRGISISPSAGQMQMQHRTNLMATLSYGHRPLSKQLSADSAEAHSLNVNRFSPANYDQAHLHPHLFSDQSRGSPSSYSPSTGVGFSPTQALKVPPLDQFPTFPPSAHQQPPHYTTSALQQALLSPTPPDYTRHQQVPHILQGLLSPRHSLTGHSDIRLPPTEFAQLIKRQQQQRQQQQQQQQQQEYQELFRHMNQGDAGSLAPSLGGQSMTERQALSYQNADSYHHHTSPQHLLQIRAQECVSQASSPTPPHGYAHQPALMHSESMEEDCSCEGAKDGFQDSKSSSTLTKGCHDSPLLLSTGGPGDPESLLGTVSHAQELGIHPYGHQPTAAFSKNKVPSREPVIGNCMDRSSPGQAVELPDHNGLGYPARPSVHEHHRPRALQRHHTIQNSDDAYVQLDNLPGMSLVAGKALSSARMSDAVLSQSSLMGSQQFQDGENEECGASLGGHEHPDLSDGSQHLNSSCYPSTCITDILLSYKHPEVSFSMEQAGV
Chain of SIK2 (Q9H0K1 whole entry): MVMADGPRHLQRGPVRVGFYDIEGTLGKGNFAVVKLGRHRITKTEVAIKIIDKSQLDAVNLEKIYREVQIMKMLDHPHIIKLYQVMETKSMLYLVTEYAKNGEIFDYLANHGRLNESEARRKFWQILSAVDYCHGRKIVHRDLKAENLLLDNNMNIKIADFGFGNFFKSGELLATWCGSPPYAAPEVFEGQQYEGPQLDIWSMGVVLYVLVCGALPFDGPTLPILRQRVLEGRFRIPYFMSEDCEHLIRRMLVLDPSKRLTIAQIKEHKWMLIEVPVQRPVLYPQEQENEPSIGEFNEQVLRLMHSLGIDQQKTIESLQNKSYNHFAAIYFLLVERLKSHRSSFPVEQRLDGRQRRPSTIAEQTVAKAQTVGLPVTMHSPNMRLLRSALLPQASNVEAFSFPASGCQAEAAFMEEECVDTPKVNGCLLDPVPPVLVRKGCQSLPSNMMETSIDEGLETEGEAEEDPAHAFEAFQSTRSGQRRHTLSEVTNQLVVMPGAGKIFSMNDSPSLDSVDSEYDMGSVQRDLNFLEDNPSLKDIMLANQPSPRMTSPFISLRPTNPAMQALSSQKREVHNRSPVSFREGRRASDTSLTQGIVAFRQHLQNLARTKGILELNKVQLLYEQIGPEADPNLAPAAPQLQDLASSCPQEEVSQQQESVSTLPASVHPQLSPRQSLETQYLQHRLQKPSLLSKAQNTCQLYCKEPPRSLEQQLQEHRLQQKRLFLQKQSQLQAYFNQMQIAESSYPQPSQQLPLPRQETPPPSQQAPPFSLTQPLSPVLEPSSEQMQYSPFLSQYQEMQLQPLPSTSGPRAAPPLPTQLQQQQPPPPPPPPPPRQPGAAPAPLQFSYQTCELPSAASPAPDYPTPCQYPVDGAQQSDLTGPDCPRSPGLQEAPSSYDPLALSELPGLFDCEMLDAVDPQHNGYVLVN

IC50 [1] [nM]	IC50 [2] [nM]	kinases inhibited less strongly than by PY1 [3]	solubility kinetic at 24 h [6] [µM]	half-life [7] [min]	half-life [8] [min]	half-life at 1 uM [9] [min]	half-life at 1 uM [10] [min]	recovery at 5 h, 10 uM [11] [%]	recovery at 5 h, 10 uM [12] [%]	efflux ratio at 120 min [13]	A > B(10 EE-06 cm/s) [14]	Compound	overall kinase profile compared to prior art compound PY1 [3]	toxicity against the cell lines in the absence of TNF [4]	inhibiting SIK2 compared to PY1 [1]	inhibiting SIK3 compared to PY1 [2]	IC50 [5, 17] [nM]	further results
400 to 800	800 to 1000	FYN, BTK, EPHB2, LCK and CSK	–	–	–	–	–	–	–	–	–	COc1ccc(N2C(=O)N(c3c(C)noc3C)Cc3cnc(Nc4ccc(C5CCN(C)CC5)cc4OC)nc32)nc1 [AA5, 3-(3,5-dimethylisoxazol-4-yl)-7-((2-methoxy-4-(1-methylpiperidin-4-yl)phenyl)amino)-1-(5-methoxypyridin-2-yl)-3,4-dihydropyrimido[4,5-d]pyrimidin-2(1H)-one]	potently inhibited far fewer kinases than prior art compound PY1	essentially non-toxic	–	–	–	relevant kinases still potently inhibited [3]: TXK, ERBB4, EPHB1, FRK, BRK, EPHA4, ACK1, EGFR, EPHA1 and SIK1; also recorded: reasonably potent against CSF1R
< 50	< 50	SRMS, NLK, RIPK5, LTK and ALK	9.1 (≈ 5.41 µg/mL)	16	20	42	108	34	45	2.9	8.4 10 EE-06 cm/s	COc1ccc(N2C(=O)N(c3c(CF)csc3Cl)Cc3cnc(Nc4ccc(C5CCN(C)CC5)cc4)nc32)nc1 [AA3, 3-(2-chloro-4-(fluoromethyl)thiophen-3-yl)-l-(5-methoxypyridin-2-yl)-7-((4-(l-methylpiperidin-4-yl)phenyl)amino)-3,4-dihydropyrimido[4,5-d]pyrimidin-2(1H)-one]	potent inhibitor of surprisingly more kinases than prior art compound PY1	–	superior in inhibiting SIK2 and SIK3 compared to PY1	superior in inhibiting SIK2 and SIK3 compared to PY1	500 to 1000	kinases inhibited more strongly than by PY1 [3]: TAOK2, SYK, TYRO3, ACVR2B, MEKK2, AXL, ITK, MAP3K11, TRKA, MERTK, ZAP70, and MEKK2, and in particular CSF1R, HCK, TXK, YES, LCK, SRC, EPHA1 and FGR
< 50	< 50	–	9.1 (≈ 5.57 µg/mL)	12	10	186	82	32	38	2.7	12.9 10 EE-06 cm/s	COc1ccc(N2C(=O)N(c3c(C(F)F)csc3Cl)Cc3cnc(Nc4ccc(C5CCN(C)CC5)cc4)nc32)nc1 [AA2, 3-(2-chloro-4-(difluoromethyl)thiophen-3-yl)-l-(5-methoxypyridin-2-yl)-7-((4-(l-methylpiperidin-4-yl)phenyl)amino)-3,4-dihydropyrimido[4,5-d]pyrimidin-2(1H)-one]	–	–	superior in inhibiting SIK2 and SIK3 compared to PY1	superior in inhibiting SIK2 and SIK3 compared to PY1	500 to 1000	–

Compound	IC50 [1] [nM]	IC50 [2] [nM]	kinases inhibited less strongly than by PY1 [3]	solubility kinetic at 24 h [6] [µM]	half-life [7] [min]	half-life [8] [min]	half-life at 1 uM [9] [min]	half-life at 1 uM [10] [min]	recovery at 5 h, 10 uM [11] [%]	recovery at 5 h, 10 uM [12] [%]	efflux ratio at 120 min [13]	A > B(10 EE-06 cm/s) [14]	overall kinase profile compared to prior art compound PY1 [3]	toxicity against the cell lines in the absence of TNF [4]	inhibiting SIK2 compared to PY1 [1]	inhibiting SIK3 compared to PY1 [2]	IC50 [5, 17] [nM]	further results
COc1ccc(N2C(=O)N(c3c(CF)csc3Cl)Cc3cnc(Nc4ccc(N5CCN(C)CC5)cc4)nc32)nc1 [AA6, 3-(2-chloro-4-(fluoromethyl)thiophen-3-yl)-1-(5-methoxypyridin-2-yl)-7-((4-(4-methylpiperazin-1-yl)phenyl)amino)-3,4-dihydropyrimido[4,5-d]pyrimidin-2(l H)-one]	< 50	< 50	–	–	–	–	–	–	–	–	–	–	–	essentially non-toxic	superior in inhibiting SIK2 and SIK3 compared to PY1	superior in inhibiting SIK2 and SIK3 compared to PY1	–	sensitisation of HCT116 tumour cells to the cytotoxic effect of TNF compared to PY1 ([15]; in words): much stronger effect compared to the prior art compound PY1; IC50 ([15]; read-out: HCT116 IC50 (at 10 ng/ml rHuTNF), 10 ng/ml rHuTNF, 72 h): < 100 nM; sensitisation of PANC tumour cells to the cytotoxic effects of TNF compared to PY1 ([16]; in words): stronger effect than PY1; IC50 ([16]; read-out: PANC IC50 (at 100 ng/ml rHuTNF), 100 ng/ml rHuTNF, 72 h): 100 to 500 nM; IC50 ([5]; read-out: MC38 IC50 (at 100 ng/ml rMuTNF)): 500 to 1000 nM
